SMILES strings stand for the structures. Values after ≈ are worked out from the molar mass of the structure shown. Where two headings read alike, the source gives them in different places.

These results are taken from article PMC8840612, “Inhibition of α-Glucosidase, Acetylcholinesterase, and Nitric Oxide Production by Phytochemicals Isolated from Millettia speciosa—In Vitro and Molecular Docking Studies” (Plants, 2022).

Series [1] deals with RAW 264.7 cells. Description: Cell viability (MTT) assay for cytotoxicity. Type of series: cell-based. Here is the method: The cells were diluted to a suitable cell density. One hundred eighty microliters of the cells were added to each well of the plate and incubated at 37 °C, 5% CO2 for 72 h. After the incubation, 10 µL of MTT solution (5 mg/mL) was added. […] Cell viability was calculated based on the formula as follows:Cell viability (%) = [(OD Sample)/(OD Control)] × 100%, where OD is the optical density recorded at 540 nm.

The test system of series [2] is NO production in lipopolysaccharide (LPS)-stimulated RAW 264.7 cells. Briefly: Inhibition of NO production in LPS-stimulated RAW 264.7 cells (Griess assay). The note with it: for IC50 / inhibition at 500 µg/mL: Mus musculus; for IC50: RAW264.7, LPS-stimulated RAW 264.7 cells; for IC50 / IC50 for the inhibition of NO production: tested 0.8–500 µg/mL, mean of three replicates ± SD; for inhibition at 500 µg/mL: RAW264.7; for inhibition at 500 µg/mL / IC50 for the inhibition of NO production: LPS-stimulated RAW 264.7 cells. Type of series: cell-based. On the procedure:
It was supplemented with 10% fetal bovine serum (FBS) and incubated at 37 °C in humidified air with 5% CO2. […] Next, 100 μL of Griess reagent (50 μL of 1% (w/v) sulfanilamide in 5% (v/v) phosphoric acid and 50 μL of 0.1% (w/v) N-1-naphthylethylenediamine dihydrochloride) was added, and it was incubated at room temperature for about 10 min. The Griess Reagent System from Promega Cooperation (USA) was used to determine the presence of nitrite. The microplate reader was used to assess absorption at 540 nm. N^G-Methyl-L-arginine acetate (L-NMMA) (Sigma) was used as a positive control at doses of […]. […] The experiments were repeated at least three times independently.

The target in series [3] is α-glucosidase from Saccharomyces cerevisiae (Saccharomyces cerevisiae, UniProt P53341). Description: In vitro α-glucosidase inhibition (p-NPG substrate).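 For all read-outs here: yeast α-glucosidase at 0.2 U/mL with p-nitrophenyl α-D-glucopyranoside substrate in 100 mM potassium phosphate pH 6.8, product read by absorbance at 410 nm.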 The note with it: for IC50: IC50 for inhibition of α-glucosidase, tested 1–256 µg/mL, mean of three replicates ± SD; for inhibition at 1 µg/mL / inhibition at 4 µg/mL / inhibition at 16 µg/mL / inhibition at 64 µg/mL / inhibition at 256 µg/mL: read-out: α-Glucosidase Inhibition (%).

In series [4] the target is acetylcholinesterase (AChE) (Homo sapiens, UniProt P22303). Briefly: biochemical. On the procedure: The acetylcholinesterase activity was determined by a colorimetric assay based on Ellman’s methodology. […] They were dissolved in DMSO and then diluted with buffer (50 mM of Tris-HCl, with a pH of 8 containing 0.1 M NaCl), 0.1% bovine serum albumin (BSA), 25 µL of acetylthiocholine iodide. The plate was incubated at 25 °C for 15 min. […] Each assay was done in triplicate. The percentage of inhibition of AChE was determined by the following formula: Inhibition (%) = [(OD of control − OD of sample)/OD of control] × 100.

In series [5] the test system is NO formation. Further details: method as in doi:10.20307/nps.2019.25.1.34. Conditions: at 40 µg/mL; ursolic acid isolated from Phryma leptostachya var. asiatica; cited from earlier work.
Series [6] deals with α-glucosidase. The note with it: cited from earlier work.
Series [7] relates to NO production. Conditions: at a high concentration of 1000 µM; cited from earlier work.
Where [8] appears, read: cell viability assay, concentrations as in NO assay.
[9] abbreviates: tested 1 to 256 µg/mL, triplicate, read-out: IC50 for acetylcholinesterase inhibition (converted).

Chain of α-glucosidase from Saccharomyces cerevisiae (P53341 whole entry): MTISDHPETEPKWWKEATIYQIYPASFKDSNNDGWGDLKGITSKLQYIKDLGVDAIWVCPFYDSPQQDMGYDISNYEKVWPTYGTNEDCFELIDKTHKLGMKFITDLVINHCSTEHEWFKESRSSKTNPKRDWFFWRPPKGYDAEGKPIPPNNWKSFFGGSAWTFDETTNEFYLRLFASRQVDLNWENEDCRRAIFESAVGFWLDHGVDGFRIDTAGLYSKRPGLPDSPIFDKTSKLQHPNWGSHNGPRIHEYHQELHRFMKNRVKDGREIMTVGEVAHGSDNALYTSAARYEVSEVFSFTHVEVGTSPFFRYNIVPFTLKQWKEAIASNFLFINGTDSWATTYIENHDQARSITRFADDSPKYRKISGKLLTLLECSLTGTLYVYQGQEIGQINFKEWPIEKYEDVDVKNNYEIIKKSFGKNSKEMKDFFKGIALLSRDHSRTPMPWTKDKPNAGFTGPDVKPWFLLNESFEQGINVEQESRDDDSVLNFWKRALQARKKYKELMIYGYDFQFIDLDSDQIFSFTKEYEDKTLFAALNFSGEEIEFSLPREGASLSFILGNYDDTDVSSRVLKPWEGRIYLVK
Chain of acetylcholinesterase (AChE) (P22303 32-614): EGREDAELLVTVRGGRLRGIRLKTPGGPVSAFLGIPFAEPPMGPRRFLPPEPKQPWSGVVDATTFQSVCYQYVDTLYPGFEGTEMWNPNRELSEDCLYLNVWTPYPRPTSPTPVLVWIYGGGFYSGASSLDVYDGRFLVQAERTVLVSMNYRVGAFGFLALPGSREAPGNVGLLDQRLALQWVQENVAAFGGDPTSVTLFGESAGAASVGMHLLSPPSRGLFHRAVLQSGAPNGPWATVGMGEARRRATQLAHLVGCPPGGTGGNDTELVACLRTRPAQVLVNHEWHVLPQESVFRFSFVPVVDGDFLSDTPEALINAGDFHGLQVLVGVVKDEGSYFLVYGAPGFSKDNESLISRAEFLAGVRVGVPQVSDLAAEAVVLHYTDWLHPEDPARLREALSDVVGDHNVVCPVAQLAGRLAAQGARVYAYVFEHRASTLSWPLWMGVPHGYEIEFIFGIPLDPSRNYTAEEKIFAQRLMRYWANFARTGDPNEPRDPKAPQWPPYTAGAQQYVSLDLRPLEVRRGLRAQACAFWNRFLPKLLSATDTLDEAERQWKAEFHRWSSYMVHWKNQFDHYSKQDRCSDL

`C[C@@H]1CC[C@]2(C(=O)O[C@@H]3O[C@H](CO)[C@@H](O)[C@H](O)[C@H]3O)CC[C@]3(C)C(=CC[C@@H]4[C@@]5(C)CC[C@H](O)[C@@](C)(CO)[C@@H]5CC[C@]43C)[C@@H]2[C@]1(C)O` [Compound 3, pedunculoside]: the “Cytotoxicity against RAW 264.7 cells” value in series [1] is on record as “without cytotoxicity”. Besides, the IC50 (as a rule, the concentration that gives 50% inhibition) in series [2] is 273 ± 8.2 mg/L (≈ 420 µM). Also, in series [3], the “Fold Change” value is reported as 0.918; the midpoint of inhibition, the IC50, lay at 284 µM; the inhibition – broadly, the share of the control response that was lost under treatment – at 1 µg/mL was 1%; the inhibition at 4 µg/mL was determined as 3%. In addition, in series [3], the inhibition at 16 µg/mL is 9.5%, the inhibition at 64 µg/mL was found to be 32% and the inhibition at 256 µg/mL was 60.5%. The IC50 in series [4] is greater than 393 µM.

With `[H]/N=C(/NC)NCCC[C@H](N)C(=O)O` [L-NMMA, N^G-Methyl-L-arginine acetate, reference compound], in series [2], half-maximal inhibition (IC50) required 8.6 mg/L.

As for `CC(C)=CCC[C@](C)(O[C@@H]1O[C@H](CO[C@@H]2O[C@H](CO)[C@@H](O)[C@H](O)[C@H]2O)[C@@H](O)[C@H](O)[C@H]1O)[C@H]1CC[C@]2(C)[C@@H]1[C@H](O)C[C@@H]1[C@@]3(C)CC[C@H](O[C@@H]4O[C@H](CO)[C@@H](O)[C@H](O)[C@H]4O)C(C)(C)[C@@H]3CC[C@]12C` [Compound 6, gypenoside XVII], the “Cytotoxicity against RAW 264.7 cells” value in series [1] (setting [8]) is “no cytotoxicity”. This compound also displayed an IC50 in series [2] of 93.9 ± 5.4 mg/L (≈ 99.1 µM). Moreover, in series [3], the “Fold Change” value was less than 0.663, the IC50 was greater than 270 µM, the inhibition at 1 µg/mL was 1% and the inhibition at 4 µg/mL was 5%. In series [3], the inhibition at 16 µg/mL was 17%, the inhibition at 64 µg/mL is 21% and the inhibition at 256 µg/mL was determined as 34%. The compound also came in with an IC50 in series [4] greater than 270 µM.

In series [2], `C[C@H]1C(=O)CC[C@@H]2[C@]1(C)CC[C@H]1[C@@]2(C)CC[C@@]2(C)[C@@H]3CC(C)(C)CC[C@]3(C)CC[C@]12C` [Compound 1, friedelin] displayed an IC50 greater than 500 mg/L and an inhibition at 500 µg/mL of 37.6%. In addition, in series [3], the “Fold Change” value is less than 0.663, the IC50 was greater than 600 µM, the inhibition at 1 µg/mL is 1% and the inhibition at 4 µg/mL was determined as 1%. Further, in series [3], the inhibition at 16 µg/mL amounted to 13%, the inhibition at 64 µg/mL amounted to 20% and the inhibition at 256 µg/mL came out at 23%. The same compound yielded an IC50 in series [4] greater than 600 µM.

In series [2], `O=c1c(-c2ccc(O)cc2)coc2cc(O[C@@H]3O[C@H](CO)[C@@H](O)[C@H](O)[C@H]3O)ccc12` [Compound 9, daidzin] gave a concentration for half-maximal inhibition (IC50) greater than 500 mg/L and an inhibition at 500 µg/mL of 39.5%. Further, in series [3], the “Fold Change” value was less than 0.663, the IC50 was greater than 615 µM, the inhibition at 1 µg/mL worked out at 0% and the inhibition at 4 µg/mL turned out to be 0%. For the same compound, in series [3], the inhibition at 16 µg/mL was 4%, the inhibition at 64 µg/mL came out at 10% and the inhibition at 256 µg/mL came out at 22%. The IC50 in series [4] was greater than 615 µM.

As for `C[C@H]1[C@H](C)CC[C@]2(C(=O)O)CC[C@]3(C)C(=CC[C@@H]4[C@@]5(C)CC[C@H](O)C(C)(C)[C@@H]5CC[C@]43C)[C@H]12` [Compound 5, ursolic acid], in series [1] (at 100 µg/mL, RAW 264.7 cells, MTT), the “Reduction of cell growth” value was 23.3%. For the same compound, in series [1] (setting [8]), the “Cytotoxicity against RAW 264.7 cells” value is “moderate cytotoxicity”. In series [2], this compound displayed an IC50 of 43.9 ± 3.7 mg/L (≈ 96.1 µM) and an inhibition at 500 µg/mL of 84%. Also, the “Effect on NO formation” value in series [5] was 80.6%. In addition, the “Manner of α-glucosidase inhibition” value in series [6] is on record as “non-competitive”. Further, in series [3], the IC50 was 2.41 µM, the inhibition at 1 µg/mL stood at 48.5%, the inhibition at 4 µg/mL was determined as 91.5% and the inhibition at 16 µg/mL was found to be 95%. For the same compound, in series [3], the inhibition at 64 µg/mL worked out at 98% and the inhibition at 256 µg/mL is 99%. In series [4] (setting [9]), the half-inhibitory concentration (IC50) was 17.5 µM.

Consider `COc1cc(/C=C/CO)cc(OC)c1O[C@@H]1O[C@H](CO)[C@@H](O)[C@H](O)[C@H]1O` [Compound 8, syringin], for which, in series [7], the “Blocking of NO production” value was “not blocked”. The same compound had a half-maximal inhibitory concentration (IC50) in series [2] of 303 ± 11 mg/L (≈ 814 µM). Further, in series [3], the “Fold Change” value is given as less than 0.663, the IC50 was greater than 687 µM, the inhibition at 1 µg/mL came to 0% and the inhibition at 4 µg/mL was 1%. In series [3], the inhibition at 16 µg/mL is 8%, the inhibition at 64 µg/mL is 9% and the inhibition at 256 µg/mL amounted to 12%. In series [4], this compound returned an IC50 greater than 687 µM.

Take `C[C@H]1[C@H](C)CC[C@]2(CO)CC[C@]3(C)C(=CC[C@@H]4[C@@]5(C)CC[C@H](O)C(C)(C)[C@@H]5CC[C@]43C)[C@H]12` [Compound 4, uvaol]: the “IC50 for the inhibition of NO production” value in series [2] came out at 246.5 ± 18.7 mg/L. Moreover, the figures for the concentration for half-maximal inhibition (IC50) in series [2] and in series [4] were 246 mg/L (≈ 557 µM) and greater than 578 µM, respectively. In series [6] (compounds isolated from Clinopodium taxifolium), the “IC50 α-glucosidase” value was 521.0 mg/L (≈ 1180 µM).

For the compound `C[C@H]1O[C@H](O[C@H]2[C@H](O)[C@@H](O)[C@@H](O[C@H]3[C@H](O)[C@@H](O)C(O)O[C@@H]3CO)O[C@@H]2CO)[C@H](O)[C@@H](O)[C@@H]1N[C@H]1C=C(CO)[C@@H](O)[C@H](O)[C@H]1O` (stereo partly shown) [acarbose, reference compound], in series [3], the inhibition at 1 µg/mL was found to be 0%, the inhibition at 4 µg/mL came to 5%, the inhibition at 16 µg/mL was determined as 18% and the inhibition at 64 µg/mL is 23%. Moreover, in series [3], the inhibition at 256 µg/mL was 72%.

With `C[C@@H]1O[C@@H](OC[C@H]2O[C@@H](Oc3c(-c4ccc(O)c(O)c4)oc4cc(O)cc(O)c4c3=O)[C@H](O)[C@@H](O)[C@@H]2O)[C@H](O)[C@H](O)[C@H]1O` [Compound 10, rutin], half-maximal inhibition in series [2] (IC50) was put at 450 ± 5.2 mg/L (≈ 736 µM). In series [3], the IC50 was 3.6 µM, the inhibition at 1 µg/mL stood at 34.5%, the inhibition at 4 µg/mL stood at 74% and the inhibition at 16 µg/mL worked out at 78%. In series [3], the inhibition at 64 µg/mL came to 82.5% and the inhibition at 256 µg/mL amounted to 85%. This compound also gave an IC50 in series [4] of 419 µM.

In the case of `C[C@@H]1CC[C@]2(C(=O)O)CC[C@]3(C)C(=CC[C@@H]4[C@@]5(C)CC[C@H](O)[C@@](C)(CO)[C@@H]5CC[C@]43C)[C@@H]2[C@]1(C)O` [Compound 2, rotundic acid], in series [2], the “IC50 for the inhibition of NO production” value worked out at 241.3 ± 8.2 mg/L and half-maximal inhibition (IC50) was put at 241 mg/L (≈ 494 µM). Also, in series [3], the “Fold Change” value is less than 0.663, the IC50 is greater than 524 µM, the inhibition at 1 µg/mL worked out at 1% and the inhibition at 4 µg/mL worked out at 1%. In addition, in series [3], the inhibition at 16 µg/mL was 1%, the inhibition at 64 µg/mL is 4% and the inhibition at 256 µg/mL was 33%. Moreover, the IC50 in series [4] (setting [9]) is greater than 524 µM.

Regarding `COc1ccc2c(c1)OC[C@H]1c3cc4c(cc3O[C@@H]21)OCO4` [Compound 7, pterocarpin], inhibition in series [2] was half-maximal at 229 ± 18.6 mg/L (≈ 767 µM) (IC50). In series [3], the “Fold Change” value is less than 0.663, the IC50 is greater than 858 µM, the inhibition at 1 µg/mL was 0% and the inhibition at 4 µg/mL worked out at 3%. Further, in series [3], the inhibition at 16 µg/mL turned out to be 3%, the inhibition at 64 µg/mL stood at 12% and the inhibition at 256 µg/mL was determined as 25%. In addition, the IC50 in series [4] (setting [9]) was greater than 858 µM.
